Measured values reported in patent US10987669B2, “Apparatus and method for detection of tumour cells and circulating tumour cells” (MEDCOM ADVANCE, S.A., priority 2016, dated 2021).

Legend:
Format in all cases: cell-based
MCF7 and MCF12A cells = experiment: On-line detection of cancer and healthy cells in the detection microfluidic chip; settings: 150 μM 2-NBDG, 5 min, hyperoxic 1×PBS, cells in flow at 0.025 mL/h
Excerpt: A detection chip based on the hydrodynamic focusing technique was constructed to continuously detect hypermetabolic cancer cells by measuring single cell fluorescence. It consisted of three inlets, a main single channel and an outlet (FIG. 8a). All inlet channels converged in a single one of 75 μm-width, which was widen to 600 μm (detection region). The conformation of the inlet channels ensures the focus of cells into a line, which can be further detected one by one. Depth of the whole microfluidic chip was 75 μm.
For the on-line detection of cancer and healthy cells, MCF12A and MCF7 cells were separately detached from culture flasks, centrifuged at 1,300 rpm for 5 min and resuspended in 1 mL of 1×PBS under hyperoxic conditions. As mentioned above, hyperoxia was achieved by bubbling oxygen into the PBS solution for 20 min. 2-NBDG was then added to achieve 150 μM as the final concentration and incubated with suspended cells for 5 min, as the optimal condition. Afterwards, incubation was stopped by adding 2-fold volume of pre-cooled 1×PBS and non-uptaken 2-NBDG was removed by centrifuging cells at 1,300 rpm for 5 min and suspending in 1×PBS. […] An epi-fluorescence microscope was used to collect the fluorescence of the 2-NBDG uptaken by single cells (both, MCF12A and MCF7). Data was analyzed with Image J software.

[1] = tested on: MCF7 breast cancer cell line (compared with MCF12A healthy breast cells); experiment: 2-NBD glucose uptake measurements on fixed cells; settings: for Fluorescence intensity of 2-NBDG, cancer versus healthy cells: 300 μM 2-NBDG
Description: MCF12A, a breast mammary epithelia-derived cell line, and MCF7 breast cancer cell line (American Type Culture Collection, ATCC, Manassas, Va., USA), were routinely cultured in DMEM/F-12 supplemented with 20 ng/mL of human epidermal growth factor, 100 ng/mL of cholera toxin, 0.01 mg/mL of bovine insulin, 500 ng/mL of hydrocortisone 95% and 5% donor horse serum; and in EMEM (Eagle's Minimum Essential Medium) supplemented with 10% fetal bovine serum, 0.01 mg/mL human recombinant insulin, 2 mM of L-glutamine and 1% Penicillin-Streptomycin, respectively. Each cell line was cultured in a humidified atmosphere with 5% CO2 at 37° C.
To study the general uptake and retention of glucose, cells were exposed to 300 μM of 2-(N-(7-Nitrobenz-2-oxa-1,3-diazol-4-yl)Amino)-2-Deoxyglucose (2-NBDG) for different incubation times: 1, 5, 10, 20, 30, and 60 min. To achieve higher 2-NBDG accumulation inside MCF7 cells, cells were exposed to different conditions based on the concentrations of dissolved oxygen. The effects on oxygen availability were evaluated by exposing cells to the hyperoxic or hypoxic environment, created by bubbling 2-NBDG incubation media for 20 min with oxygen or nitrogen, respectively. Afterwards, cells were fixed with 4% paraformaldehyde solution in 1×PBS, for 20 min, and then washed 6 times with 1×PBS and mounted onto glass slides with Fluoromount G (Southern Biotech), for the fluorescence measurements.
(§1) Fixed cells were imaged with fluorescence microscopy and then analysed using Image J. Epi-fluorescence microscope NIKON TE2000E equipped with the 465/495 excitation and 515/555 emission filters was used to collect the fluorescence of 2-NBDG. […]
2-(N-(7-Nitrobenz-2-oxa-1,3-diazol-4-yl)Amino)-2-Deoxyglucose (2-NBDG) is chosen as the model metabolism indicator. […] The concentration of 2-NBDG was determined based on the gain of clear visibility on the fluorescence images. The fluorescence intensity was quantified using Image J. The same thresholds were set for fluorescence images of both healthy and cancer cells to remove the background noises. […]

[2] = tested on: co-cultured MCF7 (Qdot685 labelled) cells with MCF12A (Qdot625 labelled) cells; experiment: 2-NBD glucose uptake measurements in co-cultured cells; settings: 300 μM 2-NBDG, 5 min, hyperoxic environment, co-culture
Description: To successfully identify different cell types in a cell mixture, previously functionalized Qdot 625 and 685 were used as the intracellular trackers for MCF12A and MCF7 cells, respectively. 50,000 cells/wells of each type were cultured separately onto glass cover slips inside 12-well plates and left growing for 48 h, at 5% CO2 and 37° C. Then, cells were washed with pre-warmed 1×PBS for 1 minute and 100 nM of each Qdot@amino-PEG was added in the cell growth media, and waited for 1 hour. After the incubation, cells were washed 3 times with 1×PBS. MCF7 (Qdot685 labelled) cells were detached from the surface using Trypsin-EDTA solution 0.25% and re-cultured onto MCF12A (Qdot625 labelled) cells. […]
Co-cultured MCF7 (Qdot685 labelled) cells with MCF12A (Qdot625 labelled) cells were exposed to 300 μM of 2-NBDG for 5 min, under the hyperoxic environment, determined by the previous optimizations. Afterwards, cells were fixed with 4% paraformaldehyde solution in 1×PBS for 20 min, and then washed 6 times with 1×PBS and mounted onto glass slides with Fluoromount G (Southern Biotech), for the fluorescence measurements.
as §1

**Q.** `O=[N+]([O-])c1ccc(N[C@H]2C(O)O[C@H](CO)[C@@H](O)[C@@H]2O)c2nonc12` (some centres unmarked) [2-NBDG, 2-(N-(7-Nitrobenz-2-oxa-1,3-diazol-4-yl)Amino)-2-Deoxyglucose] was tested. Which “Single cell fluorescence intensity of 2-NBDG, cancer versus healthy cells” value (MCF7 and MCF12A cells) did it give?
**A.** The value was “higher fluorescence intensity compared to the healthy ones”.

**Q.** And the “Fluorescence intensity of 2-NBDG, cancer versus healthy cells” value ([1]; 5 min incubation, MCF7 vs MCF12A cultured separately)?
**A.** The value was “higher fluorescence compared to healthy cells”.

**Q.** What about the “Fluorescence intensity of 2-NBDG, cancer versus healthy cells” value ([1]; incubation longer than 5 min (up to 60 min), MCF7 vs MCF12A) of the same molecule?
**A.** The value was “fluorescence from healthy cells overtakes the cancer cells”.

**Q.** And the “Fluorescence intensity gap between cancer and healthy cells” value ([1]; 5 min incubation, hyperoxia compared to control and hypoxia environments)?
**A.** The value was “further enlarged”.

**Q.** What about the “Fluorescence intensity of 2-NBDG, cancer cell versus surrounded healthy cells” value [2] of the same molecule?
**A.** The value was “greater fluorescence intensity”.
